Measurements: ChEMBL document CHEMBL1201862, “PubChem BioAssay data set” (2004)
Where a name gives a salt, the structure may show the parent alone.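 These data come from cells grown in 96-well plates and exposed to compound for 48 hours at five concentrations. GI50 marks 50% less growth.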 Calls of active or inactive are those of the source. Rule as the data show it: active = GI50 up to about 1.1 µM and inactive = higher.

Columns and labels:
Test in all cases: inhibition of tumour cell growth, NCI panel, 48 h
LXFL 529 = tested on: LXFL 529
HT-29 = tested on: HT-29
SK-MEL-28 = tested on: SK-MEL-28
HL-60 = tested on: HL-60
UACC-257 = tested on: UACC-257
SK-MEL-5 = tested on: SK-MEL-5
U-251 = tested on: U-251
Malme-3M = tested on: Malme-3M
SF-295 = tested on: SF-295
SN12C = tested on: SN12C
A549 = tested on: A549
CAKI-1 = tested on: CAKI-1
SNB-75 = tested on: SNB-75
SK-OV-3 = tested on: SK-OV-3
A498 = tested on: A498
DU-145 = tested on: DU-145
Hs-578T = tested on: Hs-578T
MDA-MB-435 = tested on: MDA-MB-435
BT-549 = tested on: BT-549
MDA-MB-231 = tested on: MDA-MB-231

Measured: GI50

NCC1(N2CCOCC2)C2CCCC21CNc1ccccc1 (stereo unspecified)
inactive: LXFL 529 > 100 µM | HT-29 > 100 µM | SK-MEL-28 > 100 µM | HL-60 53.8 µM | UACC-257 > 100 µM | SK-MEL-5 > 100 µM | U-251 > 100 µM | Malme-3M > 100 µM | SF-295 > 100 µM | SN12C > 100 µM | A549 > 100 µM | CAKI-1 > 100 µM | SNB-75 57.9 µM

CSC1=Nc2ccccc2N=C(c2ccc(Cl)cc2)C1
inactive: SK-OV-3 73.3 µM | LXFL 529 45 µM | HT-29 23 µM | SK-MEL-28 42 µM | HL-60 35.3 µM | UACC-257 27.7 µM | SK-MEL-5 24.2 µM | U-251 33.4 µM | Malme-3M 35.2 µM | SF-295 43.9 µM | SN12C 40.5 µM | A549 43.8 µM | CAKI-1 22 µM

CC1=NN(C(=O)CC(=O)Nc2ccccc2F)C(=O)C1/N=N/c1ccccc1[N+](=O)[O-] (stereo unspecified)
inactive: SK-OV-3 > 100 µM | LXFL 529 > 100 µM | HT-29 > 100 µM | SK-MEL-28 > 100 µM | UACC-257 97.3 µM | SK-MEL-5 17.9 µM | U-251 > 100 µM | Malme-3M > 100 µM | SF-295 > 100 µM | SN12C > 100 µM | A549 64.7 µM | CAKI-1 75.5 µM | SNB-75 > 100 µM

C=C1CN2CCc3c([nH]c4ccccc34)C2CC1CC(=O)N(C)C (stereo unspecified)
inactive: SK-OV-3 > 309 µM | LXFL 529 > 309 µM | HT-29 > 309 µM | SK-MEL-28 > 309 µM | HL-60 > 309 µM | UACC-257 > 309 µM | SK-MEL-5 > 309 µM | U-251 > 309 µM | Malme-3M > 309 µM | SF-295 > 309 µM | SN12C > 309 µM | A549 > 309 µM | CAKI-1 > 309 µM

COC1=C(OC)CCC(/C(C#N)=C/c2ccc(OC)c(OC)c2)=C1
inactive: SK-OV-3 26.4 µM | LXFL 529 > 100 µM | HT-29 80.9 µM | SK-MEL-28 > 100 µM | UACC-257 > 100 µM | SK-MEL-5 > 100 µM | U-251 34.5 µM | SF-295 15.9 µM | SN12C > 100 µM | A498 > 100 µM | A549 > 100 µM | CAKI-1 > 100 µM | SNB-75 16 µM

CN(/N=C\c1ccc2ccccc2c1)C1=NCCCCN1
inactive: DU-145 54.2 µM | SK-OV-3 22.1 µM | HT-29 16.1 µM | Hs-578T 20.6 µM | MDA-MB-435 18.2 µM | SK-MEL-28 15.2 µM | HL-60 15.1 µM | UACC-257 16.4 µM | SK-MEL-5 13.8 µM | BT-549 14.6 µM | MDA-MB-231 21.9 µM | U-251 18 µM | Malme-3M 14.9 µM | SF-295 15.7 µM | SN12C 18.5 µM | A498 21 µM | A549 18.8 µM | CAKI-1 11.8 µM | SNB-75 10.4 µM

CC1=C(C)C1[N+](=O)[O-]
inactive: DU-145 > 100 µM | SK-OV-3 > 100 µM | HT-29 > 100 µM | Hs-578T > 100 µM | MDA-MB-435 > 100 µM | SK-MEL-28 > 100 µM | HL-60 43.9 µM | UACC-257 > 100 µM | SK-MEL-5 > 100 µM | BT-549 > 100 µM | MDA-MB-231 > 100 µM | U-251 > 100 µM | Malme-3M 82.6 µM | SF-295 > 100 µM | SN12C > 100 µM | A498 97.7 µM | A549 > 100 µM | CAKI-1 > 100 µM | SNB-75 26.1 µM

O=[N+]([O-])c1ccc(Cl)cc1-n1nc(-c2ccccc2)cc1-c1ccccc1
inactive: DU-145 > 100 µM | SK-OV-3 > 100 µM | HT-29 97.3 µM | Hs-578T 81.3 µM | MDA-MB-435 > 100 µM | SK-MEL-28 > 100 µM | HL-60 > 100 µM | UACC-257 > 100 µM | SK-MEL-5 > 100 µM | BT-549 > 100 µM | MDA-MB-231 > 100 µM | U-251 > 100 µM | Malme-3M > 100 µM | SF-295 > 100 µM | SN12C > 100 µM | A498 > 100 µM | A549 > 100 µM | CAKI-1 > 100 µM | SNB-75 > 100 µM

CC(=O)OC1COC(n2ccc3cc(Br)c([N+](=O)[O-])cc32)C(OC(C)=O)C1OC(C)=O (stereo unspecified)
inactive: SK-OV-3 31.8 µM | LXFL 529 20 µM | HT-29 28.7 µM | SK-MEL-28 27.4 µM | UACC-257 19.2 µM | SK-MEL-5 > 10 µM | U-251 19.5 µM | Malme-3M 24.2 µM | SF-295 20.9 µM | SN12C 30.8 µM | A498 19.1 µM | A549 27.8 µM | CAKI-1 33.7 µM | SNB-75 23.1 µM

CC(=O)/C(=C\c1ccco1)C(=O)Nc1ccccc1
inactive: SK-OV-3 > 100 µM | LXFL 529 > 100 µM | HT-29 > 100 µM | SK-MEL-28 > 100 µM | HL-60 > 100 µM | UACC-257 > 100 µM | SK-MEL-5 > 100 µM | U-251 > 100 µM | Malme-3M > 100 µM | SF-295 > 100 µM | SN12C > 100 µM | A549 > 100 µM | CAKI-1 > 100 µM

O=C/C1=C/C2=Cc3ccccc3C=C(/C=C(/C=O)C1)C2
inactive: LXFL 529 30.3 µM | HT-29 40.5 µM | SK-MEL-28 39.6 µM | HL-60 41.5 µM | UACC-257 30.9 µM | SK-MEL-5 35.3 µM | U-251 34.3 µM | Malme-3M 90.4 µM | SF-295 29 µM | SN12C 42.6 µM | A498 > 100 µM | A549 > 100 µM | CAKI-1 41.1 µM | SNB-75 27.2 µM

NNC(=O)C1CCC(=O)N1S(=O)(=O)c1ccccc1 (stereo unspecified)
inactive: SK-OV-3 > 100 µM | LXFL 529 > 100 µM | HT-29 > 100 µM | SK-MEL-28 > 100 µM | HL-60 > 100 µM | UACC-257 > 100 µM | SK-MEL-5 > 100 µM | U-251 > 100 µM | Malme-3M > 100 µM | SF-295 > 100 µM | SN12C > 100 µM | A549 > 100 µM | CAKI-1 > 100 µM | SNB-75 > 100 µM

CN1C[C@H](C(=O)N[C@]2(C)O[C@@]3(O)[C@@H]4CCCN4C(=O)[C@H](Cc4ccccc4)N3C2=O)C=C2c3cccc4[nH]cc(c34)C[C@H]21 [ERGOTAMINE TARTRATE]
inactive: DU-145 22.2 µM | SK-OV-3 29.9 µM | HT-29 23.9 µM | Hs-578T 10.2 µM | MDA-MB-435 15.9 µM | SK-MEL-28 17.1 µM | HL-60 19.2 µM | UACC-257 13.9 µM | SK-MEL-5 14.2 µM | BT-549 20.9 µM | MDA-MB-231 19.2 µM | U-251 18.6 µM | Malme-3M 18.3 µM | SF-295 19.3 µM | SN12C 20 µM | A498 15 µM | A549 37.8 µM | CAKI-1 26.4 µM | SNB-75 35.6 µM
